Data reported in patent publication EP2576536B1, “HAEMATOPOIETIC-PROSTAGLANDIN D2 SYNTHASE INHIBITORS” (priority 2010, dated 2011).
Several values for one entry are separate records, joined by “and”; a condition that tells them apart may be missing. Equal entries are not always repeated. Where two headings read alike, the source gives them in different places.

Assays:
[1] = system: mouse primary bone marrow-derived macrophages (BMM); test: PGD2 production in LPS-activated BMM (EIA); format: cell-based
Method: (§1) The human megakaryocytic cell line MEG-01S was obtained from the American Type Culture Collection. MEG-01S were maintained in the same media as for BMM, supplemented with 1 mM Sodium Pyruvate (Invitrogen).
(§2) BMM were seeded overnight at 2 x 10^5 cells/ml in 24 well plates before treatment with compound at either 10 µM or 0.1 - 100 µM for 24 h in the presence or absence of lipopolysaccharide (LPS) from Salmonella Minnesota (Sigma-Aldrich) at a final concentration of 10 ng/ml. MEG-01S were seeded at 2 x 10^5 cells/ml and stimulated with PMA (Phorbol 12-myristate 13-acetate) (Sigma-Aldrich) at a final concentration of 0.1 µM for 16 h.
The compound was tested with 10 µM of compound and LPS (10 ng/ml) for 24 h. […] (Student's t test).

[2] = system: mouse primary bone marrow-derived macrophages (BMM); test: LPS-inducible PGE2, 6-keto PGF1α and TXB2 production from BMM (EIA), specificity; format: cell-based; settings: 24 h
Method: as §1, §2

BMM = BMM cell viability by MTT assay; format: cell-based, mouse; settings: at 10 µM or 100 µM, LPS, 24 h (Figure 1B)
Method: (§3) All bone marrow-derived macrophages (BMM) were obtained by culturing bone marrow cells from the femurs of 6 to 8 week old C57BL/6 male mice in RPMI 1640 medium (Invitrogen Life Technologies, Carlsbad, CA, USA) supplemented with 10 % Fetal calf serum (Invitrogen) 20 U/ml penicillin and 20 µg/ml streptomycin (Invitrogen), 2 mM L-glutamine (Glutamax-1, Invitrogen) in the presence of 10^4 U/ml (100 ng/mL) recombinant human CSF-1 (a gift from Chiron, Emeryville, CA) on bacteriological plastic plates for 7 days. The human megakaryocytic cell line MEG-01S was obtained from the American Type Culture Collection. MEG-01S were maintained in the same media as for BMM, supplemented with 1 mM Sodium Pyruvate (Invitrogen).
(§4) Known inhibitors 1 and 2, along with compound 3, were used to treat BMM at three doses (10, 30, 100 µM) in the presence of LPS for 24 h and cell viability was measured by MTT assay. BMM were seeded at 1 x 10^5 cells/well in 96 well plates and treated for 24 h with LPS (10 ng/ml) and compounds at 10, 30 and 100 µM. MEG-01S were PMA differentiated overnight before compounds were added for a further 24 h at 10, 30 and 100 µM. Cell viability was measured by MTT (Sigma-Aldrich) assay as described previously (Irvine, FASEB J, 2006).

[3] = system: MEG-01S human megakaryocytes; test: A23187-inducible PGD2 production in PMA-differentiated MEG-01S (EIA); format: cell-based; settings: 0-100 µM, 30 min before 5 µM A23187 (Figure 3A)
Method: as §3
BMM were seeded overnight at 2 x 10^5 cells/ml in 24 well plates before treatment with compound at either 10 µM or 0.1 - 100 µM for 24 h in the presence or absence of lipopolysaccharide (LPS) from Salmonella Minnesota (Sigma-Aldrich) at a final concentration of 10 ng/ml. […] Supernatants were collected and samples were analysed for PGD2 using Prostaglandin D2 Mox Express EIA kits, PGE2 using Prostaglandin E2 Express EIA kits, the prostacyclin derivative 6-keto PGF1α using the 6-keto Prostaglandin F1α EIA Kit and the Thromboxane A2 derivative TXB2 using the Thromboxane B2 Express EIA kit (Cayman Chemical) according to the manufacturer's instructions. […]

MEG-01S = MEG-01S cell viability by MTT assay; format: cell-based, human; settings: 24 h treatment, 0-100 µM (Figure 3B)
Method: as §3
as §4, with “MEG-01S were PMA differentiated overnight before compounds were added for a further 24 h at 10, 30 and 100 µM.” left out
The effect of the compounds on MEG-01S cell viability was measured by MTT assay after 24 h treatment across the concentration range 0 - 100 µM of compounds (Figure 3B). […]

[4] = Rat pharmacokinetics, plasma concentration by LC-MS/MS after oral dose; format: in vivo, Sprague Dawley rats
Method: (§5) Male adult Sprague Dawley rates (~165g) received a single oral bolus dose of 40mg/kg of compound 3 in a 0.5% methylcellulose/0.1% Tween80 by oral gavage. Rats were sacrificed when collecting blood and spleen samples just prior to dosing and at 0.5 hours, 2h, 8h and 24h (n=3 rats per time point), and the plasma concentration of compound 3 and the spleen PGD2 concentration was measured at each time point.
Blood samples were removed and kept cold at approximately 4°C immediately after collection to minimize degradation and centrifuged as soon as possible at approximately 4000 x g for 10 min. The plasma was transferred to a clean, pre-labelled polypropylene tube and frozen. Samples were stored at -20°C as soon as possible after collection to minimise degradation of the test item.
Plasma concentrations of 3 were determined using a screening LC-ms/ms method developed using the following parameters:
Samples were analysed alongside plasma standards. Concentration data were determined by back calculation from standard curve.

spleen PGD2 = test: Rat target modulation assay, spleen PGD2 by LC-MS/MS; format: in vivo, Sprague Dawley rats; settings: 8 hour time point, 40mg/kg oral
Method: as §5
Spleens were excised, weighed and snap frozen in a dry ice/ethanol bath. Tissues were stored at -80°C until analysis. […] Samples were centrifuged at 2500 rpm for 5 min at 4°C. The resultant supernatant was diluted and the measurement of PGD2 was determined by solid-phase extraction (SPE) using cationic solid-phase extraction cartridges. The SPE eluent was assayed using a screening LC-MS/MS method against aqueous PGD2 standards, using the following LC-MS/MS parameters: […]

EC50 fold better than that estimated for 1 ([1]; BMM PGD2 production, compound 3 versus compound 1): ~30 fold
EC50 ([1]; Mus musculus, Macrophage, BMM, LPS 10 ng/ml, 24 h, 0-100 µM compound, read-out: EC50 estimated for inhibition of PGD2 production): ~290 nM
Concentration ([4]; individual rat, 0.5 h after 40mg/kg oral gavage): 263 ng/mL and 218 ng/mL
Concentration ([4]; individual rat, 2 h after 40mg/kg oral gavage): 73.5 ng/mL and 107 ng/mL
Concentration ([4]; individual rat, 8 h after 40mg/kg oral gavage): 17.3 ng/mL and 63.9 ng/mL and 51.8 ng/mL
Concentration (ng/mL) ([4]; individual rat, 24 h after 40mg/kg oral gavage): BLOQ^2
concentration at 0.5 h ([4]; male, Sprague Dawley, rat, plasma, oral, 40 mg/kg, 0.5 h after 40mg/kg oral gavage, N 3, read-out: Mean (± sem) Concentration): 219 ± 24.8 ng/mL
concentration at 2 h ([4]; male, Sprague Dawley, rat, plasma, oral, 40 mg/kg, 2 h after 40mg/kg oral gavage, N 3, read-out: Mean (± sem) Concentration): 91.8 ± 9.79 ng/mL
concentration at 8 h ([4]; male, Sprague Dawley, rat, plasma, oral, 40 mg/kg, 8 h after 40mg/kg oral gavage, N 3, read-out: Mean (± sem) Concentration): 44.3 ± 14 ng/mL
concentration at 24 h ([4]; male, Sprague Dawley, rat, plasma, oral, 40 mg/kg, 24 h after 40mg/kg oral gavage, N 3, BLOQ treated as 0.5 ng/mL, read-out: Mean (± sem) Concentration): 0.677 ± 0.177 ng/mL
concentration at 0.5 h ([4]; male, Sprague Dawley, rat, plasma, oral, 40 mg/kg, individual rat, 0.5 h after 40mg/kg oral gavage, read-out: Concentration): 177 ng/mL
concentration at 2 h ([4]; male, Sprague Dawley, rat, plasma, oral, 40 mg/kg, individual rat, 2 h after 40mg/kg oral gavage, read-out: Concentration): 94.8 ng/mL
concentration at 24 h ([4]; male, Sprague Dawley, rat, plasma, oral, 40 mg/kg, individual rat, 24 h after 40mg/kg oral gavage, read-out: Concentration): 1.03 ng/mL
oral bioavailability ([4]; rat, 40mg/kg oral gavage): orally bioavailable
presence in the serum ([4]; rat, 8 hours post delivery, 40mg/kg oral): present
Compound: NC(=O)[C@H](Cc1ccccc1)NC(=O)c1ccc(-c2cccs2)nc1 [Compound 3, N-(1-amino-1-oxo-3-phenylpropan-2-yl)-6-(thiophen-2-yl)-nicotinamide]
inhibition of PGD2 production ([1]; BMM, LPS, 24 h, 0-100 µM (Figure 2A)): inhibited PGD2 production in the sub-micromolar range dose-dependently
PGD2 levels ([1]; BMM, LPS, 24 h, at 1 µM): significantly inhibiting
concentration above which PGE2, 6-keto PGF1α and TXB2 inhibition was observed [2]: above 10 µM
differential effect in inhibition of PGD2 versus PGE2, 6-keto PGF1α or TXB2 (selectivity) ([2]; 0-100 µM): striking selectivity
BMM viability (BMM): did not affect BMM viability
A23187-inducible PGD2 production [3]: inhibited A23187-inducible PGD2 production from PMA-differentiated MEG-01S human megakaryocytes dose-dependently
MEG-01S cell viability (MEG-01S): little effect
reduction in PGD2 activity (spleen PGD2): 20%
